Values quoted from earlier work, collected in US20250186494A1, “CAR-T THERAPIES TARGETED VIA COVALENTLY BONDED ADAPTERS” (THE SCRIPPS RESEARCH INSTITUTE, priority 2023, published 2025).

Target: PSMA (Homo sapiens, UniProt Q04609)
Settings: already known targeting moiety

Chain of PSMA (Q04609 whole entry): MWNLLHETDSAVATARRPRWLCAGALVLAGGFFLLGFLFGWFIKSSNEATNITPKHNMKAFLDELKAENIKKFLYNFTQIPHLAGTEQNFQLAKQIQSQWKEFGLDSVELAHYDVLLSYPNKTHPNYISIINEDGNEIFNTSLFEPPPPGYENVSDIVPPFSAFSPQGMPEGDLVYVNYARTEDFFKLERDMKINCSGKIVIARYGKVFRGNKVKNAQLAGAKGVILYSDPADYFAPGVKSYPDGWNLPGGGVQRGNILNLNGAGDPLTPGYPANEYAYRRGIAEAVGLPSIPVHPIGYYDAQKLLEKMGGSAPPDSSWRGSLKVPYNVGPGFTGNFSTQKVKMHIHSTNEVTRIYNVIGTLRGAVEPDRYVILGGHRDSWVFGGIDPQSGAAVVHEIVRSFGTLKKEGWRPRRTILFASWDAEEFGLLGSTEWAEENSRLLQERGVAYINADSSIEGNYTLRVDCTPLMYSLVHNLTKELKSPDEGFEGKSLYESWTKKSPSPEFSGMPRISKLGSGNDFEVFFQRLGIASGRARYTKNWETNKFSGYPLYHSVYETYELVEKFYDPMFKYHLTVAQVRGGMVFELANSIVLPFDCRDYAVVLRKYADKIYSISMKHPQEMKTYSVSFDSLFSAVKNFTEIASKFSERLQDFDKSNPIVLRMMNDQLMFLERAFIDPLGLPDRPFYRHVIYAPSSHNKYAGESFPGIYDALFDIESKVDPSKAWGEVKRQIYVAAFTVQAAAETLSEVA

## O=C(O)CCC(NC(=O)NC(CCC(=O)O)C(=O)O)C(=O)O (stereo not shown) [DUPA, 2-[3-(1,3-dicarboxypropyl)ureido]pentanedioic acid]
  affinity for PSMA: nM affinity
